Reference: paper PMC8704606, “The Artemiside-Artemisox-Artemisone-M1 Tetrad: Efficacies against Blood Stage P. falciparum Parasites, DMPK Properties, and the Case for Artemiside” (Pharmaceutics, 2021)
Read-outs that look alike come from different tables or passages of the source.

Tests used:
[1] = Pharmacokinetics and metabolism after iv and po administration; assay type: in vivo; details: for half-life: mean ± SD, read-out: t½ (converted); for MRT last: read-out: MRT0-last; for AUC(0-t): up to 7 h
Procedure: The plasma concentration-time profiles of the parent compounds and metabolites after administration iv and po to male C57/BL6 mice are presented in Figure 2, Figure 3 and Figure 4. Artemiside was quantifiable up to 24 h in all mice dosed iv and up to 7 h po (lower limit of quantitation LLOQ = 1.6 ng/mL or 0.004 μM) (Figure 2). […] For both artemiside and artemisox, the metabolite artemisone was quantifiable up to 3 h in both the po and iv groups (Figure 2 and Figure 3). Thereby it is confirmed that artemiside is rapidly converted via artemisox into artemisone. Artemisone itself was quantifiable up to three hours post dose (Figure 4). The mean circulating concentrations for the compounds and their metabolites are presented in Table S3a–f in the Supplementary Material 1. The metabolite M1 was also detected upon administration of artemiside, artemisox, and artemisone, but it was not quantified here; chromatograms indicating the presence of M1 are illustrated in Figure S3a–c in the Supplementary Material 1. In addition, the plasma concentration-time curves for artemiside and its metabolites artemisone and M1 following iv and po dosing in the same murine model are presented and discussed in detail elsewhere (cf. Figure 4 in reference).
All work was conducted with prior approval of the animal ethics committee of the University of Cape Town in accordance with the South African National Standards for the Care and Use of Animals for Scientific Purposes and guidelines from the South African Department of Health. The requirements and methods for the pharmacokinetics in vivo involving po and iv drug administration, sample extraction, analyses of samples by LC-MS/MS, and data analyses are described elsewhere. For the animal experiments and formulations, the compounds were dissolved in a 10:60:30 mixture of N,N-dimethylacetamide-polypropylene glycol-polyethylene glycol for intravenous dosing (iv) at 5 mg/kg. For the oral dose (po), compounds were individually dosed as a suspension in 0.5% (w/v) hydroxypropylmethylcellulose in water with 0.2% Tween80 at 50 mg/kg to male C57/BL6 mice (n = 3 for each group). For PK sampling, blood samples were collected at predetermined times (0.08, 0.25, 0.5, 1, 3, 5, 7, and 24 h) for both po and iv dosing via tail bleeding into heparinized tubes, centrifuged, and the plasma samples were stored at −80 °C until extraction. For preparation of samples, the frozen plasma samples were thawed and 15 μL was extracted by liquid–liquid extraction using a universal buffer (pH8) containing 10 ng/mL of the internal standard and ethyl acetate, and the extract was vortexed and centrifuged. Calibration standards and quality controls were extracted following the same procedure. Supernatants were dried down, reconstituted, and injected onto the column for LC-MS/MS analysis using an AB SCIEX 5500 QTRAP instrument coupled to an Agilent 1260 HPLC detection system as previously described.

[2] = test system: asexual blood stages of Pf NF54 (drug sensitive); set-up: method as in PMID 29866868, PMID 31998692; details: asexual blood stage Pf NF54, CQ sensitive; SYBR Green I; ± SEM; cited from earlier work
[3] = test system: late-stage (LG) Pf NF54 gametocytes; set-up: method as in PMID 29866868; details: late-stage gametocytes >90% stages IV-V; dose responses obtained at 72 h; ± SEM; cited from earlier work
[4] = male, C57/BL6, mouse, plasma, iv 5 mg/kg, parent drug
[5] = male, C57/BL6, mouse, plasma, po 50 mg/kg, parent drug

SMILES: C[C@H]1[C@H](N2CCS(=O)(=O)CC2)O[C@@H]2O[C@@]3(C)CC[C@H]4[C@H](C)CC[C@@H]1[C@@]24OO3 [Artemisone 7, Artemisone]
- concentration at 3 h ([1]; male, C57/BL6, mouse, plasma, iv, 5 mg/kg, 3 h after iv 5 mg/kg artemisone 7, read-out: Mean iv circulating concentration): 28 nM
- concentration at 3 h ([1]; male, C57/BL6, mouse, plasma, iv, 5 mg/kg, 3 h after iv 5 mg/kg artemisox 6, read-out: Mean iv circulating concentration): 7 nM
- concentration at 5 h ([1]; male, C57/BL6, mouse, plasma, iv, 5 mg/kg, 5 h after iv 5 mg/kg artemiside 5, read-out: Mean iv circulating concentration): 5 nM
- half-life ([1]; male, C57/BL6, mouse, plasma, iv, 5 mg/kg, iv 5 mg/kg, parent drug): 24 min
- concentration at 0.08 h ([1]; male, C57/BL6, mouse, plasma, po, 50 mg/kg, 0.08 h after po 50 mg/kg artemiside 5, read-out: Mean po circulating concentration): 1000 nM
- concentration at 0.08 h ([1]; male, C57/BL6, mouse, plasma, po, 50 mg/kg, 0.08 h after po 50 mg/kg artemisone 7, read-out: Mean po circulating concentration): 1630 nM
- concentration at 0.08 h ([1]; male, C57/BL6, mouse, plasma, po, 50 mg/kg, 0.08 h after po 50 mg/kg artemisox 6, read-out: Mean po circulating concentration): 3640 nM
- concentration at 0.25 h ([1]; male, C57/BL6, mouse, plasma, po, 50 mg/kg, 0.25 h after po 50 mg/kg artemiside 5, read-out: Mean po circulating concentration): 1390 nM
- concentration at 0.25 h ([1]; male, C57/BL6, mouse, plasma, po, 50 mg/kg, 0.25 h after po 50 mg/kg artemisone 7, read-out: Mean po circulating concentration): 1520 nM
- concentration at 0.25 h ([1]; male, C57/BL6, mouse, plasma, po, 50 mg/kg, 0.25 h after po 50 mg/kg artemisox 6, read-out: Mean po circulating concentration): 3530 nM
- concentration at 0.5 h ([1]; male, C57/BL6, mouse, plasma, po, 50 mg/kg, 0.5 h after po 50 mg/kg artemiside 5, read-out: Mean po circulating concentration): 1790 nM
- concentration at 0.5 h ([1]; male, C57/BL6, mouse, plasma, po, 50 mg/kg, 0.5 h after po 50 mg/kg artemisone 7, read-out: Mean po circulating concentration): 1140 nM
- concentration at 0.5 h ([1]; male, C57/BL6, mouse, plasma, po, 50 mg/kg, 0.5 h after po 50 mg/kg artemisox 6, read-out: Mean po circulating concentration): 3690 nM
- concentration at 1 h ([1]; male, C57/BL6, mouse, plasma, po, 50 mg/kg, 1 h after po 50 mg/kg artemiside 5, read-out: Mean po circulating concentration): 1670 nM
- concentration at 1 h ([1]; male, C57/BL6, mouse, plasma, po, 50 mg/kg, 1 h after po 50 mg/kg artemisone 7, read-out: Mean po circulating concentration): 357 nM
- concentration at 1 h ([1]; male, C57/BL6, mouse, plasma, po, 50 mg/kg, 1 h after po 50 mg/kg artemisox 6, read-out: Mean po circulating concentration): 3200 nM
- concentration at 3 h ([1]; male, C57/BL6, mouse, plasma, po, 50 mg/kg, 3 h after po 50 mg/kg artemiside 5, read-out: Mean po circulating concentration): 179 nM
- concentration at 3 h ([1]; male, C57/BL6, mouse, plasma, po, 50 mg/kg, 3 h after po 50 mg/kg artemisone 7, read-out: Mean po circulating concentration): 12 nM
- concentration at 3 h ([1]; male, C57/BL6, mouse, plasma, po, 50 mg/kg, 3 h after po 50 mg/kg artemisox 6, read-out: Mean po circulating concentration): 48 nM
- concentration at 5 h ([1]; male, C57/BL6, mouse, plasma, po, 50 mg/kg, 5 h after po 50 mg/kg artemisox 6, read-out: Mean po circulating concentration): 7 nM
- half-life ([1]; male, C57/BL6, mouse, plasma, po, 50 mg/kg, po 50 mg/kg, parent drug): 23.4 ± 3 min
- clearance ([1]; male, C57/BL6, mouse, plasma, iv 5 mg/kg): 88.3 mL/min/kg
- AUC(0-inf) [1, 4]: 2.5 ± 0.6 µM·h
- MRT last ([1]; male, C57/BL6, mouse, plasma, iv 5 mg/kg, parent drug, 0-last up to 7 h): 33.6 ± 4.2 min
- AUC(0-t) [1, 4]: 2.4 ± 0.6 µM·h
- Vd ([1]; male, C57/BL6, mouse, plasma, iv 5 mg/kg, read-out: Vss): 3 ± 0.5 L/kg
- bioavailability ([1]; male, C57/BL6, mouse, plasma, po 50 mg/kg vs iv 5 mg/kg, read-out: F (bioavailability)): 4.9 ± 1.7%
- Cmax [1, 5]: 1700 ± 400 nM
- MRT last [1, 5]: 32.4 ± 7.8 min
- AUC(0-t) [1, 5]: 1.1 ± 0.1 µM·h
- MAT (mean absorption time = MRTpo–MRTiv) ([1]; po 50 mg/kg): 0 h
- IC50 [2]: 1.2 ± 0.4 nM
- IC50 [3]: 42.4 ± 3.3 nM
